Here are results for nine molecules from PubChem BioAssay (NCI).

Values joined by “and” are separate entries in the source; they are usually repeats but may differ in a detail not shown here. Equal values may be shown once.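 Cultured in 96-well plates, cells were exposed to test compound for 48 hours across five concentrations. The concentration for 50% growth inhibition is given as GI50. TGI: total growth inhibition.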

Experiment in all cases: NCI-60 cell line screen, 48 h
Experiment [1] deals with MALME-3M melanoma.
Experiment [2] has as its system SF-268 CNS.
In experiment [3] the test system is BT-549 breast.
The test system of experiment [4] is NCI-H23 lung.
In experiment [5] the test system is NCI-H460 lung.
In experiment [6] the test system is NCI/ADR-RES ovarian.
Experiment [7] deals with IGROV1 ovarian.
Experiment [8] relates to ACHN renal.
The subject of experiment [9] is OVCAR-8 ovarian.
Experiment [10] has as its system TK-10 renal.

With `O=C1/C(=C/c2ccc(Br)cc2)COc2ccc(O)c(O)c21`, the GI50 was 1.11 µM in experiment [1]; 1.26 µM in experiment [2]; 1.2 µM in experiment [3]; 1.62 µM in [4]; 1.68 µM in experiment [5]; 0.665 µM in [6]. For the same molecule, the GI50 is 0.631 µM in [7], 0.828 µM in experiment [8], 0.675 µM in [9] and 1.7 µM in experiment [10]. Besides, the TGI in experiment [1] was 3.35 µM; in experiment [2] it was 3.4 µM; in experiment [3], 3 µM; in experiment [4], 3.65 µM; in experiment [5], 4.06 µM; in experiment [6] it was above 25.8 µM. Further, the TGI was 2.16 µM in experiment [7], 2.09 µM in [8] and 3.2 µM in [10].
Turning to `C=COCCCOc1ccccc1`, the TGI in experiment [1], in experiment [2], in experiment [3], in [4], in experiment [5] and in experiment [6] was above 100 µM in each case. Also, the TGI in experiment [8], in experiment [9] and in [10] was above 100 µM each time. Besides, the GI50 in experiment [3] and in [6] was above 100 µM in each case.
As to `CCN1CCN(C(c2ccc(C(F)(F)F)cc2)c2ccc3cccnc3c2O)CC1` (stereo not drawn), the GI50 is 3.72 µM in [1]; 1.36 µM in [2]; 1.4 µM in experiment [3]; 2.35 µM in experiment [4]; 0.412 µM in [5]; 1.77 µM in experiment [6]. Further, the GI50 in experiment [7] was 2.04 µM; in experiment [8] it was 3.04 µM; in experiment [9] it was 1.85 µM; in experiment [10] it was 10 µM. The TGI was 15.4 µM in experiment [1]; 12.8 µM in [2]; 11.6 µM in [3]; 14.9 µM in experiment [4]; 10.8 µM in experiment [5]; 10.9 µM in [6]. The TGI is 12.4 µM in [7], 11.2 µM in experiment [8], 13.5 µM in experiment [9] and 22 µM in experiment [10].
As for `O/N=C/C1C(OCc2ccccc2)C(OCc2ccccc2)C(OCc2ccccc2)CN1Cc1ccccc1` (stereo not drawn), the TGI in [1] is 97.6 µM and 33.6 µM; in experiment [2] it was above 100 µM; in experiment [3], 37.1 µM; in experiment [4] it was 41.7 µM and 26.6 µM; in experiment [5] it was 32.4 µM and 29.9 µM; in experiment [6], 72.5 µM and > 100 µM. For the same molecule, the TGI was 65.9 µM and > 100 µM in experiment [7]; 37.4 µM and > 100 µM in [8]; 39.9 µM and > 100 µM in experiment [9]; 58.8 µM and > 100 µM in experiment [10]. The GI50 is 14.1 µM and 2.78 µM in experiment [4]; 8.94 µM and 3.24 µM in [5]; 7.12 µM and 22.3 µM in experiment [6]; 15.2 µM and 4.4 µM in experiment [8]; 22 µM and 3.08 µM in [10].
`S=C1NC2(CCCCCC2)NN1c1ccccc1`: the TGI in experiment [1], in experiment [2], in experiment [3], in experiment [4], in [5] and in experiment [6] was above 100 µM throughout. The TGI in experiment [7], in experiment [8], in experiment [9] and in experiment [10] was above 100 µM in each case.
For `OC[C@H]1C[C@](O)(c2ccc(Cl)cc2)[C@@H](c2ccc(Cl)cc2)O1`, the GI50 in experiment [1] is 21.5 µM; in experiment [2] it was 26.8 µM; in [3], 16.8 µM; in experiment [4] it was 24.8 µM; in [5], 20.2 µM; in experiment [6], 30.3 µM. For the same molecule, the GI50 in [8] is 28 µM; in [9] it was 31.2 µM; in [10] it was 30.5 µM. Also, the TGI in [1] is 45.4 µM; in experiment [2] it was above 100 µM; in experiment [3] it was 34.6 µM; in experiment [4], 58.2 µM; in experiment [5] it was 48.7 µM; in experiment [6] it was 87.5 µM. Besides, the TGI in experiment [8] amounted to 97.3 µM; in experiment [9], 91.7 µM; in experiment [10], 84.3 µM.
For `COc1ccc(CN2C(=O)/C(=C\C(=O)c3ccc(OCCN4CCCCC4)cc3)c3ccccc32)cc1`, the GI50 in [1] is 1.82 µM; in [2], 4.03 µM; in experiment [3] it was 5.25 µM; in experiment [4] it was 6.68 µM; in [5], 7.67 µM; in [6], 3.84 µM. The GI50 in [7] was 2.08 µM; in experiment [8], 1.69 µM; in experiment [10], 1.69 µM. For the same molecule, the TGI in experiment [1] is 3.41 µM; in [2], 19.5 µM; in experiment [3] it was 16.5 µM; in experiment [4], 21.6 µM; in [5], 22.3 µM; in [6], 22.5 µM. Also, the TGI in experiment [7] amounted to 4.48 µM; in experiment [8], 3.05 µM; in [10], 3.18 µM.
Consider `C=C1CC[C@@H]2[C@](C)(COC(C)=O)[C@H](OC(C)=O)CC[C@@]2(C)[C@@H]1CC(Sc1ccccc1)C1=CCOC1=O` (stereo partly drawn), for which the GI50 was 1.74 µM in experiment [1]; 1.71 µM in experiment [2]; 1.59 µM in experiment [3]; 1.78 µM in experiment [4]; 2.24 µM in experiment [5]; 2.1 µM in experiment [6]. Also, the GI50 was 1.34 µM in experiment [8], 1.46 µM in experiment [9] and 2.83 µM in [10]. Further, the TGI in experiment [1] stood at 3.63 µM; in [2], 3.55 µM; in experiment [3], 3.99 µM; in experiment [4], 3.67 µM; in experiment [5] it was 6.03 µM; in experiment [6], 11 µM. For the same molecule, the TGI turned out to be 2.84 µM in experiment [8], 4.7 µM in experiment [9] and 5.54 µM in experiment [10].
`COc1cc(C#CC(=O)OC/C=C/c2ccc3c(c2)OCO3)cc(OC)c1OC`: the TGI is 47.7 µM in [1]; 59.5 µM in experiment [2]; 52.3 µM in experiment [3]; 58.5 µM in [4]; 77.1 µM in experiment [5]; 47.8 µM in [6]. For the same molecule, the TGI was above 100 µM in experiment [8], above 100 µM in experiment [9] and 60.8 µM in [10].
